For test [1], the target named is GlunN1/GluN2A glutamate receptors (Homo sapiens (Human), UniProt Q05586+Q12879). Nature of the test: Whole-cell patch clamp of mammalian cells (Ionworks Barracuda), positive allosteric modulation, GluN1/GluN2A. The format is cell-based. An outline of the steps:
(§1)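 Perforated-patch whole-cell recording, holding −70 mV, −40 mV during application; Cs-based internal pH 7.2, external with 5 mM CaCl2 pH 7.4. Test article pre-applied alone 5 min, then co-applied with EC20 L-glutamate plus 30 μM glycine. EC50 from Hill fit of % activation over the EC20 current.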
On the technique in general: In patch-clamp work, channel activity is measured electrically.

Test [2] addresses GluN2B glutamate receptors (Homo sapiens (Human), UniProt Q05586+Q13224). Nature of the test: Whole-cell patch clamp of mammalian cells (Ionworks Barracuda), positive allosteric modulation, GluN2B. Conditions: for Emax: read-out: Avg Emax 2B (%). It is filed as cell-based. In outline:
as §1

The mark [3] stands for this setting: HEK293 cells, % potentiation of current elicited with EC20 L-glutamate and 30 μM glycine, read-out: Avg Emax 2A (%).
Where [4] appears, read: % potentiation of current elicited with EC20 L-glutamate and 30 μM glycine.
The mark [5] stands for this setting: HEK293, read-out: Avg Emax 2A (%).
The mark [6] stands for this setting: HEK293 cells, co-application with EC20 L-glutamate and 30 μM glycine, 8-point concentration-response, read-out: Avg EC50 2A.
[7] abbreviates: co-application with EC20 L-glutamate and 30 μM glycine, 8-point concentration-response, read-out: Avg EC50 2B.

Structures are written as SMILES. Where two headings read alike, the source gives them in different places.

Chain of GlunN1/GluN2A glutamate receptors (Q12879 23-1464, other chains not shown): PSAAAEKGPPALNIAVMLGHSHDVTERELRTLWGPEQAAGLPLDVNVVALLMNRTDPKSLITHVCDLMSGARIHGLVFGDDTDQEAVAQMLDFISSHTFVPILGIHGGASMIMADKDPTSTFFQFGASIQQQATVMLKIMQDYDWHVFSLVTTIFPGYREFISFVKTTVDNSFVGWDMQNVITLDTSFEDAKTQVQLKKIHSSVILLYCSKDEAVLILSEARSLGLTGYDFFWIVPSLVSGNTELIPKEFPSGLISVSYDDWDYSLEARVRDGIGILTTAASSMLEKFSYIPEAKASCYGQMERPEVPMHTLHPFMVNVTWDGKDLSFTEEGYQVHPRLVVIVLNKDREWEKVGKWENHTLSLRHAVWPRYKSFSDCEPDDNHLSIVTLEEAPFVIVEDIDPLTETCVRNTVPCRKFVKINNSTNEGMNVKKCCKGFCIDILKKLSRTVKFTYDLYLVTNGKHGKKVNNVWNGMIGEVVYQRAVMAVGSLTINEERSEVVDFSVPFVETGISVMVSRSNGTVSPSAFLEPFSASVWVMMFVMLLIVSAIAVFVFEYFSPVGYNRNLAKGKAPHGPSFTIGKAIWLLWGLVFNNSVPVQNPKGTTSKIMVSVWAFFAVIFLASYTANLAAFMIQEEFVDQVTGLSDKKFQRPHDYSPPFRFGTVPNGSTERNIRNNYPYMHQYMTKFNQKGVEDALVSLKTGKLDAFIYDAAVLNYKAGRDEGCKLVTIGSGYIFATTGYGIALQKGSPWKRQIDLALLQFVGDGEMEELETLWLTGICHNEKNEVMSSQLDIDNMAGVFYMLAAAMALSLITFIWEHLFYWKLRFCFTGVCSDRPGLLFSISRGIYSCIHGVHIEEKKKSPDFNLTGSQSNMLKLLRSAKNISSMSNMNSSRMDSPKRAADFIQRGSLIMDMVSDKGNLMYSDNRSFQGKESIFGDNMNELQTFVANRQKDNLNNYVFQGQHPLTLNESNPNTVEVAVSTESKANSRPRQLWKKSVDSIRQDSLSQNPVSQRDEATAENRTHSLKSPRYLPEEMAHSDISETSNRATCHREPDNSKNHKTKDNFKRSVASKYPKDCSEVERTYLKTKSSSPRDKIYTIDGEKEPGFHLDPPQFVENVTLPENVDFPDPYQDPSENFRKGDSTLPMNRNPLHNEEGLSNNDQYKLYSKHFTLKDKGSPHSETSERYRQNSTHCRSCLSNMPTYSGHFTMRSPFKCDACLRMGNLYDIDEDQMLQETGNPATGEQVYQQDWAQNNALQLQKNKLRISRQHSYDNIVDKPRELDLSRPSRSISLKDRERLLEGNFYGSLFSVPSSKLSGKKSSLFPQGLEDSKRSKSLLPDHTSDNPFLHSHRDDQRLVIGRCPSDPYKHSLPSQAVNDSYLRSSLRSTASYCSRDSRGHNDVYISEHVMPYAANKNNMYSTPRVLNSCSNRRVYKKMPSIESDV
Chain of GluN2B glutamate receptors (Q13224 27-1484, other chains not shown): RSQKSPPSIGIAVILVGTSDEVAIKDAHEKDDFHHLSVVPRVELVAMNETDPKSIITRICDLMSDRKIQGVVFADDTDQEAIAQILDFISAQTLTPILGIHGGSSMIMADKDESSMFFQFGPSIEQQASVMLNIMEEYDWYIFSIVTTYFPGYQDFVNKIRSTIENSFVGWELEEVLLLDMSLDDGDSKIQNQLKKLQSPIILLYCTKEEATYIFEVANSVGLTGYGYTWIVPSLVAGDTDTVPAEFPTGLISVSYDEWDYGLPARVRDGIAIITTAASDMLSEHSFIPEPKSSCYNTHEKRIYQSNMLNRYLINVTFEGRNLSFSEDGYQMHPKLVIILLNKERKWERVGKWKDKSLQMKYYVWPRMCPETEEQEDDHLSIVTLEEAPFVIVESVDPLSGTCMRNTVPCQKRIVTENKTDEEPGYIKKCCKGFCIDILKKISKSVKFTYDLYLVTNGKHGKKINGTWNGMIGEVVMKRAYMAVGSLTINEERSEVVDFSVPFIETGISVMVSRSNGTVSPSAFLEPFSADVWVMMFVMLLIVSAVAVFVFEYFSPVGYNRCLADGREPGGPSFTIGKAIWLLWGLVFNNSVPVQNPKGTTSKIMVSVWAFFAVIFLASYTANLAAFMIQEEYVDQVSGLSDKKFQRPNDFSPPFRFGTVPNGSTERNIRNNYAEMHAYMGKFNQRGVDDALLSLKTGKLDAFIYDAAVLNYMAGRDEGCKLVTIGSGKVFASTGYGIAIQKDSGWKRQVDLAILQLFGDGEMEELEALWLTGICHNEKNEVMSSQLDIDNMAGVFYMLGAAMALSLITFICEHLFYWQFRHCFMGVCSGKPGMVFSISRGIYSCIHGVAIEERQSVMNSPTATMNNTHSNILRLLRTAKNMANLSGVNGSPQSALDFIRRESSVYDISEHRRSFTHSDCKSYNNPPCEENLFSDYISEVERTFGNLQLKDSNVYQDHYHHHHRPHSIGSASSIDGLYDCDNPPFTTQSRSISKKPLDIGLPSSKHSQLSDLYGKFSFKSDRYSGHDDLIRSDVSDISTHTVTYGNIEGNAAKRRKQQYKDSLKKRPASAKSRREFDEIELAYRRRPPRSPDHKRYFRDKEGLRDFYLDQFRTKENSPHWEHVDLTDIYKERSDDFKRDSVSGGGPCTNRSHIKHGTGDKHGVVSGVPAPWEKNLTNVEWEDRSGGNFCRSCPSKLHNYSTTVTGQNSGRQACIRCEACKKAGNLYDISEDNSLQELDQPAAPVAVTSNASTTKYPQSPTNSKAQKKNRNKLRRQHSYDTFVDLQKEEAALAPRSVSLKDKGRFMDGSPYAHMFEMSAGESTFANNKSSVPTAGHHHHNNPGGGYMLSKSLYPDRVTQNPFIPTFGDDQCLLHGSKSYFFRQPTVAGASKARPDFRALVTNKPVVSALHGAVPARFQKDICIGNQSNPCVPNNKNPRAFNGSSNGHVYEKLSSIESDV

Usually EC50 stands for the concentration giving half of the maximal effect. For orientation: Emax means the size of the effect at its maximum, as opposed to the concentration needed. Consider `CC[C@@H](O)CC[C@@H](C)[C@H]1CC[C@H]2[C@@H]3CC=C4C[C@](O)(CC)CC[C@@H]4[C@H]3CC[C@]12C` [Compound 8584], for which the EC50 in test [1] stood at 332 nM; in test [2] it was 244 nM. Besides, the Emax was determined as 284% in test [1] (setting [3]) and 363% in test [2] (setting [4]).

As to `CC[C@H](O)CC[C@@H](C)[C@H]1CC[C@H]2[C@@H]3CC=C4C[C@](O)(CC)CC[C@@H]4[C@H]3CC[C@]12C` [Compound 8585], the values for the EC50 in test [1] and in test [2] were 286 nM and 237 nM, respectively. Besides, the Emax in test [1] (setting [3]) amounted to 194%; in test [2] (setting [4]), 233%.

For `CC[C@]1(O)CC[C@H]2C(=CC[C@@H]3[C@@H]2CC[C@]2(C)[C@@H]([C@H](C)CC[C@]4(O)CCOC4)CC[C@@H]32)C1` [Compound 8603], the values for the EC50 in test [1] and in test [2] were 135 nM and 75.1 nM, respectively.

With `CC[C@]1(O)CC[C@H]2C(=CC[C@@H]3[C@@H]2CC[C@]2(C)[C@@H]([C@H](C)CCC4(O)CCOC4)CC[C@@H]32)C1` (stereo partly drawn) [Compound 8689], the EC50 in test [1] is 169 nM; in test [2], 175 nM.

In the case of `CC[C@]1(O)CC[C@H]2C(=CC[C@@H]3[C@@H]2CC[C@]2(C)[C@@H]([C@H](C)CCC4(O)CCC(F)(F)CC4)CC[C@@H]32)C1` [Compound 8708], the EC50 was 697 nM in test [1] and 553 nM in test [2]. Moreover, the figures for the Emax in test [1] (setting [3]) and in test [2] (setting [4]) were 117% and 243%, respectively.

For the compound `CC[C@H](O)CC[C@@H](C)[C@H]1CC[C@H]2[C@@H]3CC[C@H]4C[C@](O)(CC)CC[C@@H]4[C@H]3CC[C@]12C` [Compound 8809], the EC50 turned out to be 533 nM in test [1] and 160 nM in test [2]. Besides, the Emax turned out to be 73.6% in test [1] (setting [5]) and 78.2% in test [2].

`CC[C@]1(O)CC[C@H]2C(=CC[C@@H]3[C@@H]2CC[C@]2(C)[C@@H]([C@H](C)CCC4(O)CCC(C)(C)CC4)CC[C@@H]32)C1` [Compound 8946]: the results for the EC50 in test [1] and in test [2] were 1600 nM and 1350 nM, respectively. Moreover, the Emax in test [1] (setting [3]) turned out to be 263%; in test [2] (setting [4]) it was 231%.

With `CC[C@]1(O)CC[C@H]2[C@@H](CC[C@@H]3[C@@H]2CC[C@]2(C)[C@@H]([C@H](C)CCC4(O)CCC(C)(C)CC4)CC[C@@H]32)C1` [Compound 8963], the Emax worked out at 8.4% in test [1] (setting [3]) and 55.9% in test [2] (setting [4]). The EC50 in test [1] (setting [6]) and in test [2] (setting [7]) was more than 10000 nM each time.

Consider `C[C@H](CC[C@](C)(O)C(F)(F)F)[C@H]1CC[C@H]2[C@@H]3CC=C4C[C@@](C)(O)CC[C@@H]4[C@H]3CC[C@]12C` [Compound 9062], for which the Emax came to 66.5% in test [1] (setting [5]) and 52.2% in test [2].

In the case of `CC[C@@H](O)CC[C@@H](C)[C@H]1CC[C@H]2[C@@H]3CC[C@H]4C[C@](O)(CC)CC[C@@H]4[C@H]3CC[C@]12C` [Compound 9142], the results for the EC50 in test [1] and in test [2] were more than 10000 nM and 70.4 nM, respectively. In addition, the Emax in test [1] (setting [5]) was 41.6%; in test [2] it was 44.8%.

In the case of `CC[C@]1(O)CC[C@H]2C(=CC[C@@H]3[C@@H]2CC[C@]2(C)[C@@H]([C@H](C)CCC[C@H](O)C(F)(F)F)CC[C@@H]32)C1` [Compound 9567], the results for the Emax in test [1] (setting [3]) and in test [2] (setting [4]) were 104% and 124%, respectively. For the same compound, the EC50 is 328 nM in test [1] (setting [6]) and 378 nM in test [2] (setting [7]).

Regarding `CC[C@]1(O)CC[C@H]2[C@@H](CC[C@@H]3[C@@H]2CC[C@]2(C)[C@@H]([C@H](C)CCCC(C)(C)O)CC[C@@H]32)C1` [Compound 9670], the figures for the EC50 in test [1] and in test [2] were 366 nM and 220 nM, respectively. Besides, the results for the Emax in test [1] (setting [3]) and in test [2] (setting [4]) were 154% and 213%, respectively.

As to `CC[C@]1(O)CC[C@H]2C(=CC[C@@H]3[C@@H]2CC[C@]2(C)[C@@H]([C@H](C)CCC[C@@H](C)O)CC[C@@H]32)C1` [Compound 9792], the values for the Emax in test [1] (setting [3]) and in test [2] (setting [4]) were 64.5% and 58.2%, respectively.

As to `CC[C@]1(O)CC[C@H]2C(=CC[C@@H]3[C@@H]2CC[C@]2(C)[C@@H]([C@H](C)CCCC4(O)CCC(F)(F)CC4)CC[C@@H]32)C1` [Compound 9810], the Emax in test [1] (setting [3]) worked out at 87.1%; in test [2] (setting [4]), 91.6%. Also, the EC50 in test [1] (setting [6]) is 124 nM; in test [2] (setting [7]) it was 151 nM.

As for `CC[C@]1(O)CC[C@H]2[C@@H](CC[C@@H]3[C@@H]2CC[C@]2(C)[C@@H]([C@H](C)CCCC4(O)CCC(F)(F)CC4)CC[C@@H]32)C1` [Compound 9813], the Emax came out at 68.7% in test [1] (setting [3]) and 99.9% in test [2] (setting [4]). Further, the EC50 in test [1] (setting [6]) was 469 nM; in test [2] (setting [7]), 268 nM.

In the case of `CC[C@]1(O)CC[C@H]2C(=CC[C@@H]3[C@@H]2CC[C@]2(C)[C@@H]([C@H](C)CCC[C@H](C)O)CC[C@@H]32)C1` [Compound 9911], the figures for the Emax in test [1] (setting [3]) and in test [2] (setting [4]) were 234% and 326%, respectively.

Consider `CC[C@]1(O)CC[C@H]2C(=CC[C@@H]3[C@@H]2CC[C@]2(C)[C@@H]([C@H](C)CCCC(O)C(C)(C)C)CC[C@@H]32)C1` (stereo partly drawn) [Compound 10012], for which the Emax in test [1] (setting [3]) amounted to 154%; in test [2] (setting [4]), 168%. For the same compound, the EC50 in test [1] (setting [6]) came to 790 nM; in test [2] (setting [7]), 910 nM.

On to `CC[C@]1(O)CC[C@H]2C(=CC[C@@H]3[C@@H]2CC[C@]2(C)[C@@H]([C@H](C)CCC[C@@H](O)C(C)(C)C)CC[C@@H]32)C1` [Compound 10042], for which the EC50 in test [1] is more than 10000 nM; in test [2], 1880 nM. Also, the Emax amounted to 65.9% in test [1] (setting [3]) and 113% in test [2] (setting [4]).

As for `CC[C@]1(O)CC[C@H]2C(=CC[C@@H]3[C@@H]2CC[C@]2(C)[C@@H]([C@H](C)CCC[C@H](O)C(C)(C)C)CC[C@@H]32)C1` [Compound 10043], the EC50 stood at 897 nM in test [1] and 1070 nM in test [2]. In addition, the values for the Emax in test [1] (setting [3]) and in test [2] (setting [4]) were 146% and 211%, respectively.

For `CC[C@]1(O)CC[C@H]2C(=CC[C@@H]3[C@@H]2CC[C@]2(C)[C@@H]([C@H](C)CCC[C@@H](O)C(C)C)CC[C@@H]32)C1` [Compound 10114], the Emax in test [1] (setting [3]) is 146%; in test [2] (setting [4]), 179%.

Consider `CC[C@]1(O)CC[C@H]2C(=CC[C@@H]3[C@@H]2CC[C@]2(C)[C@@H]([C@H](C)CCC[C@H](O)C(C)C)CC[C@@H]32)C1` [Compound 10115], for which the Emax in test [1] (setting [3]) is 192%; in test [2] (setting [4]) it was 226%. For the same compound, the values for the EC50 in test [1] (setting [6]) and in test [2] (setting [7]) were 556 nM and 458 nM, respectively.

Consider `CC[C@]1(O)CC[C@H]2C(=CC[C@@H]3[C@@H]2CC[C@]2(C)[C@@H]([C@H](C)CCCC4(O)CCOCC4)CC[C@@H]32)C1` [Compound 10216], for which the values for the Emax in test [1] (setting [3]) and in test [2] (setting [4]) were 79.3% and 121%, respectively. Moreover, the EC50 in test [1] (setting [6]) amounted to 1200 nM; in test [2] (setting [7]) it was 446 nM.

Consider `CC[C@]1(O)CC[C@H]2C(=CC[C@@H]3[C@@H]2CC[C@]2(C)[C@@H]([C@H](C)CCCC4(O)CCC(C)(C)CC4)CC[C@@H]32)C1` [Compound 10317], for which the results for the Emax in test [1] (setting [3]) and in test [2] (setting [4]) were 56.7% and 59.9%, respectively.

As to `CC[C@]1(O)CC[C@H]2C(=CC[C@@H]3[C@@H]2CC[C@]2(C)[C@@H]([C@H](C)CCC[C@@H](O)C(F)(F)F)CC[C@@H]32)C1` [Compound 10456], the Emax in test [1] (setting [3]) came to 231%; in test [2] (setting [4]), 266%. Moreover, the EC50 was determined as 240 nM in test [1] (setting [6]) and 209 nM in test [2] (setting [7]).

Turning to `CC[C@]1(O)CC[C@H]2C(=CC[C@@H]3[C@@H]2CC[C@]2(C)[C@@H]([C@H](C)CCC[C@](C)(O)C(F)(F)F)CC[C@@H]32)C1` [Compound 10557], the values for the Emax in test [1] (setting [3]) and in test [2] (setting [4]) were 190% and 202%, respectively. Also, the results for the EC50 in test [1] (setting [6]) and in test [2] (setting [7]) were 287 nM and 192 nM, respectively.

In the case of `CCC(O)CCC[C@@H](C)[C@H]1CC[C@H]2[C@@H]3CC=C4C[C@](O)(CC)CC[C@@H]4[C@H]3CC[C@]12C` (stereo partly drawn) [Compound 10673], the figures for the Emax in test [1] (setting [5]) and in test [2] were 216% and 214%, respectively.

Regarding `CC[C@]1(O)CC[C@H]2C(=CC[C@@H]3[C@@H]2CC[C@]2(C)[C@@H]([C@H](C)CCCC4(O)CC4)CC[C@@H]32)C1` [Compound 10790], the Emax in test [1] (setting [3]) worked out at 160%; in test [2] (setting [4]), 246%. In addition, the EC50 was found to be 204 nM in test [1] (setting [6]) and 271 nM in test [2] (setting [7]).

For the compound `CC[C@@H](O)CCC[C@@H](C)[C@H]1CC[C@H]2[C@@H]3CC=C4C[C@](O)(CC)CC[C@@H]4[C@H]3CC[C@]12C` [Compound 10841], the EC50 in test [1] and in test [2] was more than 10000 nM each time. For the same compound, the values for the Emax in test [1] (setting [5]) and in test [2] were 15.6% and 30.1%, respectively.

As for `CC[C@H](O)CCC[C@@H](C)[C@H]1CC[C@H]2[C@@H]3CC=C4C[C@](O)(CC)CC[C@@H]4[C@H]3CC[C@]12C` [Compound 10949], the Emax came to 97.4% in test [1] (setting [5]) and 147% in test [2].

For `C[C@H](CCCC1(O)CCC(F)(F)CC1)[C@H]1CC[C@H]2[C@@H]3CC[C@H]4C[C@](O)(C(F)(F)F)CC[C@]4(C)[C@H]3CC[C@]12C` [Compound 11786], the Emax in test [1] (setting [3]) amounted to 152%; in test [2] (setting [4]) it was 151%. Further, the EC50 came out at 584 nM in test [1] (setting [6]) and 1010 nM in test [2] (setting [7]).

The record behind these values is US11149054B2, “Oxysterols and methods of use thereof” (Sage Therapeutics, Inc., priority 2016, dated 2021).
